In BindingDB's records for doi:10.7270/Q2XW4H88 (Nmmlsc, 2011):
pEC50: −log10 of the molar value.

Biological target: T1, Integrin alpha-L (Mus musculus, UniProt P24063)
T1 sequence (P24063 whole entry): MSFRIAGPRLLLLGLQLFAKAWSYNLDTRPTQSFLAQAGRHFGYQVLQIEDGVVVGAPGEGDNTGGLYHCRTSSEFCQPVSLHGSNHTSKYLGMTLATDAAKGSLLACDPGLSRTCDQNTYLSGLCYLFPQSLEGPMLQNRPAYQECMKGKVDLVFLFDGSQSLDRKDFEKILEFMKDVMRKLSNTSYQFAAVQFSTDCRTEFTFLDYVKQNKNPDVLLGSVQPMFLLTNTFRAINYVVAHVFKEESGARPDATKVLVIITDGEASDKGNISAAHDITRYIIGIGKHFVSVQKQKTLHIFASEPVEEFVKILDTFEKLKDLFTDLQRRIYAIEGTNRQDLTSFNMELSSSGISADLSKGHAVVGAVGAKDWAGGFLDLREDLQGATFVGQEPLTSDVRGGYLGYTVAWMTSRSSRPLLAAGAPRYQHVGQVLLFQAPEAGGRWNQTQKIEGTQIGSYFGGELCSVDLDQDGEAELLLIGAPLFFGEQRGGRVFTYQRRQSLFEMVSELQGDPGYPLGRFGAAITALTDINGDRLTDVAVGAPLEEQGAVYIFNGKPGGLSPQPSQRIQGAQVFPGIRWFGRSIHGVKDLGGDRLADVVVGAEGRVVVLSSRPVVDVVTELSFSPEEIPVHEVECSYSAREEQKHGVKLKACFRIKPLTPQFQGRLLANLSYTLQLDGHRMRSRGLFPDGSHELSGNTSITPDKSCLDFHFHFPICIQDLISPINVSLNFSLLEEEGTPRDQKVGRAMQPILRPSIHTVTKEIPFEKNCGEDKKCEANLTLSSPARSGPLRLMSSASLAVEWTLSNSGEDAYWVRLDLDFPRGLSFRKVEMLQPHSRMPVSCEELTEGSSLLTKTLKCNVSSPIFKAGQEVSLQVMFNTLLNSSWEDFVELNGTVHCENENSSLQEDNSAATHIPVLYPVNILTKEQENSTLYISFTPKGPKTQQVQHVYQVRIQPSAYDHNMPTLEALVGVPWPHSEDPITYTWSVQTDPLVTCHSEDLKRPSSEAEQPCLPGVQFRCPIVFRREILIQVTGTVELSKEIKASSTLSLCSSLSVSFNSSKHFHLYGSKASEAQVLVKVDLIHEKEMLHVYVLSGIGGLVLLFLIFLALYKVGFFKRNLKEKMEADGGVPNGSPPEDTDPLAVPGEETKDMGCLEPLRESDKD
Assay: modulators of CD8 T cell-vesicle binding, dose response, powder samples, mouse 2C CD8+ cells (AID 504565)

O=C(c1ccc(-n2c(O)c3c(c2O)CC(Cl)=CC3)cc1)N1CCCCC1 [5-chloro-2-[4-[oxo(1-piperidinyl)methyl]phenyl]-3a,4,7,7a-tetrahydroisoindole-1,3-dione]
pEC50: 5.04
